For 28 compounds, EC50 results are on record in patent US20230250106A1, “COMPOUNDS AND COMPOSITIONS FOR TREATING CONDITIONS ASSOCIATED WITH STING ACTIVITY” (IFM Due, Inc., priority 2020, published 2023).

The subject of the test is STING pathway. The test is described as follows: STING reporter assay: luciferase reporter activity in THP1-Dual KO-IFNAR2 cells activated with 2'3'cGAMP. It is filed as cell-based. The conditions noted are these: Homo sapiens, 2'3'cGAMP 15 μM, 24 h, read-out: hSTING EC50. The method, then:
STING pathway activation by the compounds described herein was measured using THP1-Dual™ cells (KO-IFNAR2).
THP1-Dual™ KO-IFNAR2 Cells (obtained from invivogen) were maintained in RPMI, 10% FCS, 5 ml P/S, 2 mM L-glut, 10 mM Hepes, and 1 mM sodium pyruvate. Compounds were spotted in empty 384 well tissue culture plates (Greiner 781182) by Echo for a final concentration of 0.0017-100 μM. Cells were plated into the TC plates at 40 μL per well, 2×10E6 cells/mL. For activation with STING ligand, 2′3′cGAMP (MW 718.38, obtained from Invivogen), was prepared in Optimem media.
The following solutions were prepared for each 1×384 plate: • Solution A: 2 mL Optimem with one of the following stimuli: • 60 μL of 10 mM 2′3′cGAMP→150 μM stock • Solution B: 2 mL Optimem with 60 μL Lipofectamine 2000→Incubate 5 min at RT
2 mL of solution A and 2 ml Solution B was mixed and incubated for 20 min at room temperature (RT). 20 μL of transfection solution (A+B) was added on top of the plated cells, with a final 2′3′cGAMP concentration of 15 μM. The plates were then centrifuged immediately at 340 g for 1 minute, after which they were incubated at 37° C., 5% CO2,>98% humidity for 24 h. Luciferase reporter activity was then measured. EC50 values were calculated by using standard methods known in the art.
Luciferase reporter assay: 10 μL of supernatant from the assay was transferred to white 384-plate with flat bottom and squared wells. One pouch of QUANTI-Luc™ Plus was dissolved in 25 mL of water. 100 μL of QLC Stabilizer per 25 mL of QUANTI-Luc™ Plus solution was added. 50 μL of QUANTI-Luc™ Plus/QLC solution per well was then added. Luminescence was measured on a Platereader (e.g., Spectramax I3X (Molecular Devices GF3637001)).
Luciferase reporter activity was then measured. EC50 values were calculated by using standard methods known in the art.

The term EC50 denotes the concentration that produces a half-maximal response. For `O=C(Nc1c[nH]c2cc(F)c(F)cc12)c1ccc(CN2CC(F)(F)C2)c(F)c1` [Compound 181, N-(5,6-difluoro-1H-indol-3-yl)-4-((3,3-difluoroazetidin-1-yl)methyl)-3-fluorobenzamide], the EC50 is 200 to 1000 nM.

As for `CCCCOc1ccc(C(=O)Nc2c[nH]c3cc(F)c(F)cc23)cc1` [Compound 132, 4-butoxy-N-(5,6-difluoro-1H-indol-3-yl)benzamide], the concentration for a half-maximal effect (EC50) is 200 to 1000 nM. For `O=C(NCc1ccc(C(=O)Nc2c[nH]c3cc(F)c(F)cc23)cc1)OCc1cccnc1` [Compound 123, (pyridin-3-yl)methyl N-({4-[(5,6-difluoro-1H-indol-3-yl)carbamoyl]phenyl}methyl)carbamate], the EC50 fell in the range of 1000 to 5000 nM. Under `O=C(Nc1c[nH]c2cc(F)c(F)cc12)c1cnc(N2CC3(C2)CC(F)(F)C3)c(Cl)c1` [Compound 101, 5-chloro-N-(5,6-difluoro-1H-indol-3-yl)-6-(6,6-difluoro-2-azaspiro[3.3]heptan-2-yl)nicotinamide] stands 200 to 1000 nM; under `CC(C)Oc1ccc(C(=O)Nc2c[nH]c3cc(F)c(F)cc23)cc1` [Compound 128, N-(5,6-difluoro-1H-indol-3-yl)-4-isopropoxybenzamide], 200 to 1000 nM. `Cc1ccc(C(=O)Nc2c[nH]c3cc(F)c(F)cc23)cc1OCCCC(F)(F)F` [Compound 172, N-(5,6-difluoro-1H-indol-3-yl)-4-methyl-3-(4,4,4-trifluorobutoxy)benzamide]: the EC50 lay in the range of 200 to 1000 nM. The same measure for `O=C(Nc1c[nH]c2cc(F)c(F)cc12)c1ccc(CN2CC(F)C2)c(F)c1` [Compound 260, N-(5,6-difluoro-1H-indol-3-yl)-3-fluoro-4-((3-fluoroazetidin-1-yl)methyl)benzamide]: 200 to 1000 nM; for `O=C(Nc1c[nH]c2cc(F)c(F)cc12)c1cccc(OC(F)(F)F)c1` [Compound 125, N-(5,6-difluoro-1H-indol-3-yl)-3-(trifluoromethoxy)benzamide]: 200 to 1000 nM. The same measure for `O=C(Nc1c[nH]c2cc(F)c(F)cc12)c1ccc(OCC(F)(F)F)cc1` [Compound 152, N-(5,6-difluoro-1H-indol-3-yl)-4-(2,2,2-trifluoroethoxy)benzamide]: 200 to 1000 nM.

For `O=C(Nc1c[nH]c2cc(F)ccc12)c1cnc(N2CCC(F)(F)CC2)c(Cl)c1` [Compound 190, 5-chloro-6-(4,4-difluoropiperidin-1-yl)-N-(6-fluoro-1H-indol-3-yl)nicotinamide], the 50% effective concentration (EC50) lay within 200 to 1000 nM. In the case of `O=C(Nc1c[nH]c2ccc(-c3cnn(-c4cccc(C5CC5)c4)c3)cc12)c1ccc(OCCCC(F)(F)F)cc1` [Compound 201, N-(5-(1-(3-cyclopropylphenyl)-1H-pyrazol-4-yl)-1H-indol-3-yl)-4-(4,4,4-trifluorobutoxy)benzamide], the EC50 fell in the range of 200 to 1000 nM. As to `COCCO[C@@H]1CCN(c2ccc(C(=O)Nc3c[nH]c4cc(F)c(F)cc34)cc2F)C1` [Compound 185, (R)-N-(5,6-difluoro-1H-indol-3-yl)-3-fluoro-4-(3-(2-methoxyethoxy)pyrrolidin-1-yl)benzamide], the EC50 lay within 200 to 1000 nM.

As to `CC(C)n1cc(-c2ccc3[nH]cc(NC(=O)c4cnc(N5CCC(F)(F)CC5)c(Cl)c4)c3c2)cn1` [Compound 102, 5-chloro-6-(4,4-difluoropiperidin-1-yl)-N-(5-(1-isopropyl-1H-pyrazol-4-yl)-1H-indol-3-yl)nicotinamide], the EC50 is 200 to 1000 nM. Under `O=C(Nc1c[nH]c2cc(F)c(F)cc12)c1cnc(OCCCC(F)(F)F)cn1` [Compound 148, N-(5,6-difluoro-1H-indol-3-yl)-5-(4,4,4-trifluorobutoxy)pyrazine-2-carboxamide] stands 200 to 1000 nM.

As to `N#Cc1ccc2[nH]cc(NC(=O)c3ccc(OCCCC(F)(F)F)c(F)c3)c2c1` [Compound 145, N-(5-cyano-1H-indol-3-yl)-3-fluoro-4-(4,4,4-trifluorobutoxy)benzamide], the EC50 is 200 to 1000 nM. Take `O=C(Nc1c[nH]c2cc(F)c(F)cc12)c1cc(Cc2ccc(C(F)(F)F)cc2)c(=O)[nH]n1` [Compound 105, N-(5,6-difluoro-1H-indol-3-yl)-6-oxo-5-(4-(trifluoromethyl)benzyl)-1,6-dihydropyridazine-3-carboxamide]: the EC50 was 200 to 1000 nM. Under `O=C(Nc1c[nH]c2cc(F)c(F)cc12)c1ccc(OCC2CC2)c(Cl)c1` [Compound 195, 3-chloro-4-(cyclopropylmethoxy)-N-(5,6-difluoro-1H-indol-3-yl)benzamide] stands 200 to 1000 nM; under `O=C(Nc1c[nH]c2ccc(Cl)cc12)c1ccc(OC2CCN(CC(F)(F)F)CC2)cc1` [Compound 230, N-(5-chloro-1H-indol-3-yl)-4-((1-(2,2,2-trifluoroethyl)piperidin-4-yl)oxy)benzamide], 40 to 200 nM; under `CC(C)(C)OC(=O)N1CCC(Oc2ccc(C(=O)Nc3c[nH]c4cc(F)c(F)cc34)cc2)CC1` [Compound 249, tert-butyl 4-{4-[(5,6-difluoro-1H-indol-3-yl)carbamoyl]phenoxy}piperidine-1-carboxylate], 200 to 1000 nM.

Consider `O=C(Nc1c[nH]c2cc(F)c(F)cc12)c1cnc(OCCC(F)(F)F)c(F)c1` [Compound 140, N-(5,6-difluoro-1H-indol-3-yl)-5-fluoro-6-(3,3,3-trifluoropropoxy)nicotinamide], for which the EC50 was 200 to 1000 nM. In the case of `COCCNc1cc(C(=O)Nc2c[nH]c3cc(F)c(F)cc23)ccn1` [Compound 238, N-(5,6-difluoro-1H-indol-3-yl)-2-((2-methoxyethyl)amino)isonicotinamide], the EC50 was in the range of 5000 to 100000 nM. The same measure for `COCCOc1ncc(C(=O)Nc2c[nH]c3cc(F)c(F)cc23)cc1C` [Compound 226, N-(5,6-difluoro-1H-indol-3-yl)-6-(2-methoxyethoxy)-5-methylnicotinamide]: 200 to 1000 nM; for `O=C(Nc1c[nH]c2cc(F)c(F)cc12)c1cnc(N2CCC(F)(F)CC2)c(Cl)c1` [Compound 156, 5-chloro-N-(5,6-difluoro-1H-indol-3-yl)-6-(4,4-difluoropiperidin-1-yl)nicotinamide]: 200 to 1000 nM; for `O=C(Nc1c[nH]c2cc(F)c(F)cc12)c1cccc(OCCCC(F)(F)F)c1` [Compound 171, N-(5,6-difluoro-1H-indol-3-yl)-3-(4,4,4-trifluorobutoxy)benzamide]: 200 to 1000 nM. The same measure for `CC(C)n1cc(-c2ccc3[nH]cc(NC(=O)c4ccc(OCCCC(F)(F)F)cc4)c3c2)cn1` [Compound 180, N-(5-(1-isopropyl-1H-pyrazol-4-yl)-1H-indol-3-yl)-4-(4,4,4-trifluorobutoxy)benzamide]: 200 to 1000 nM. Under `CCC(O)c1cc(C(=O)Nc2c[nH]c3cc(F)c(F)cc23)ccn1` (stereo not shown) [Compound 241, N-(5,6-difluoro-1H-indol-3-yl)-2-(1-hydroxypropyl)isonicotinamide] stands 5000 to 100000 nM; under `O=C(Nc1c[nH]c2cc(F)c(F)cc12)c1ccc(OCC(F)(F)F)c(F)c1` [Compound 134, N-(5,6-difluoro-1H-indol-3-yl)-3-fluoro-4-(2,2,2-trifluoroethoxy)benzamide], 200 to 1000 nM. In the case of `CC(C)Oc1ccc(C(=O)Nc2c[nH]c3cc(F)c(F)cc23)cn1` [Compound 265, N-(5,6-difluoro-1H-indol-3-yl)-6-(propan-2-yloxy)pyridine-3-carboxamide], the EC50 is 200 to 1000 nM.
